In patent publication US20240049721A1, “COMPOSITIONS AND METHODS FOR CONTROLLING FUNGI” (priority 2020, published 2024):
Several values for one entry are separate records, joined by “and”; a condition that tells them apart may be missing. Identical values can stand only once.

What was measured:
[1] = Loading (encapsulation) efficacy of essential oils into AgriCell; format: physicochemical; conditions: EO encapsulated into AgriCell; original EO concentration 200 mg/mL; UV-Vis at 280 nm after ethanol extraction
Method: After AgriCells are purified, the concentrated AgriCell paste or dry lyophilized powder is loaded with EOs. If dry, the AgriCells are first homogenized into a finer powder through mechanical homogenization. A stock solution from each EO is prepared in ethanol at 100 mg/mL-200 mg/mL. Lyophilized AgriCells would then be suspended in a solution with the EO solution at a ratio of 1 g of dry AgriCells to 10 mL of EO solution. Once resuspended, the ethanol is allowed to evaporate overnight, leaving behind EO encapsulated AgriCells in the process. After this overnight period, encapsulated AgriCells are removed from the beaker, and the EO-encapsulated AgriCell powder is mechanically homogenized. This encapsulated product is ready for resuspension in its appropriate medium. Loading efficacy was measured and/or calculated as percentage of EO loaded into AgriCell after extraction with ethanol 100% v/v and quantification by UV-Vis spectroscopy. Eugenol, geraniol and thymol were quantified at 280 nm.

[2] = Thermogravimetric analysis (TGA) 37° C. to 500° C.; format: physicochemical; conditions: temperature increase from 37° C. to 500° C.
Method: FIG. 9 illustrates thermogravimetric Analysis (“TGA”) between AgriCell encapsulated Thymol (“AC Thymol”) and free Thymol (“Thymol”; not encapsulated by AgriCell) along with gradual increase of temperature from 37° C. to 500° C.

[3] = test system: Botrytis cinerea; conditions: against B. cinerea; reported value; cited from earlier work
[4] = Thermal degradation of essential oils at 40° C.; format: physicochemical
Method: (§1) AgriCell-encapsulated EOs, which were AC-Eugenol, AC-Geraniol, and AC-Thymol, (200 mg/mL of EO loaded with 200 mg/mL of AgriCell) were diluted 1:10 in deionized water (total volume 1000 μL, 14 replicates for each EO) and the solutions were left at 40° C. for a total period of 7 days. One replicate of each EO per treatment was collected daily and tested for EO content. Results were reported as concentration of EO as function of time for each stability condition.

[5] = Oxidative degradation of essential oils under UV and Vis light; format: physicochemical
Method: as §1, with “under UV radiation” for “at 40° C.”, “content by UV-Vis spectroscopy as described in Example 2.” for “content.”

[6] = test system: Leaf blotch; test: Wheat trial: leaf blotch; format: in vivo; conditions: wheat crop
[7] = test system: Fusarium graminearum; format: in vivo; conditions: wheat crop

Cc1ccc(C(C)C)c(O)c1 [thymol]
encapsulation efficacy [1]: 91.8%
start of accelerated degradation (TGA) [2]: about 62 °C
reported EC50 [3]: 21.32 µg/mL
percentage of degradation (thermal) ([4]; 7 days, 20 mg/mL): 79.1%
oxidative degradation (reduction of EO) ([5]; 7 days, 20 mg/mL): 55.8%

CC(C)=CCC/C(C)=C/CO [geraniol]
encapsulation efficacy [1]: 89.0%
percentage of degradation (thermal) ([4]; 40° C., day 7, diluted 1:10 in deionized water): 84.2%
oxidative degradation (reduction of EO) ([5]; UV radiation, after 7 days, diluted 1:10 in deionized water): 72.6%

C=CCc1ccc(O)c(OC)c1 [eugenol]
encapsulation efficacy [1]: 95.5%
percentage of degradation (thermal) ([4]; 7 days, 20 mg/mL): 82.6%
oxidative degradation (reduction of EO) ([5]; 7 days, 20 mg/mL): 82.6%

CC(C)(C)C(O)(CCc1ccc(Cl)cc1)Cn1cncn1 (stereo not drawn) [Tebuconazole (Folicur), Tebuconazole]
Leaf blotch Incidence % [6]: 100%
Leaf blotch severity % [6]: 3.6% and 3.8%
Average FHB severity % [7]: 8.3% and 1.5%
FHB Incidence % [7]: 4.2% and 2.5%
